Laboratory results published in PubChem BioAssay (NCI).
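96-well plates; 48 h exposure; 5 concentrations. Endpoints by linear interpolation between flanking doses. Not reached: highest tested concentration assigned. GI50: concentration for 50% inhibition of growth. TGI: concentration producing complete growth inhibition.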

How the values were obtained:
Assay in all cases: NCI-60 cell line screen, 48 h
MALME-3M melanoma = system: MALME-3M melanoma
SF-268 CNS = system: SF-268 CNS
OVCAR-5 ovarian = system: OVCAR-5 ovarian
HCT-15 colon = system: HCT-15 colon
MCF7 breast = system: MCF7 breast
SF-295 CNS = system: SF-295 CNS
786-0 renal = system: 786-0 renal
SK-OV-3 ovarian = system: SK-OV-3 ovarian
NCI-H23 lung = system: NCI-H23 lung
CAKI-1 renal = system: CAKI-1 renal

| SMILES | GI50 (MALME-3M melanoma) | TGI (MALME-3M melanoma) | GI50 (SF-268 CNS) | TGI (SF-268 CNS) | GI50 (OVCAR-5 ovarian) | TGI (OVCAR-5 ovarian) | GI50 (HCT-15 colon) | TGI (HCT-15 colon) | GI50 (MCF7 breast) | TGI (MCF7 breast) | GI50 (SF-295 CNS) | TGI (SF-295 CNS) | GI50 (786-0 renal) | TGI (786-0 renal) | GI50 (SK-OV-3 ovarian) | TGI (SK-OV-3 ovarian) | GI50 (NCI-H23 lung) | TGI (NCI-H23 lung) | TGI (CAKI-1 renal) | GI50 (CAKI-1 renal) |
| --- | --- | --- | --- | --- | --- | --- | --- | --- | --- | --- | --- | --- | --- | --- | --- | --- | --- | --- | --- | --- |
| Nc1c(C(=O)Nc2cccc3ccccc23)sc2nc3c(cc12)CCCCCC3 | > 50 µM | > 50 µM | 2.77 µM | > 50 µM | 2.7 µM | > 50 µM | 0.772 µM | > 50 µM | 0.302 µM | > 50 µM | 1.39 µM | > 50 µM | 2.13 µM | > 50 µM | 1.95 µM | > 50 µM | 1.97 µM | > 50 µM | – | – |
| COC(=O)C1=CCS(=O)(=O)C1 | – | > 100 µM | – | > 100 µM | – | > 100 µM | – | > 100 µM | – | – | – | > 100 µM | – | > 100 µM | – | > 100 µM | – | > 100 µM | > 100 µM | – |
| O=c1cc(/C=C/c2ccccc2)c2ccc(O/C(=C\c3ccccc3)c3nc4ccccc4c(=O)o3)cc2o1 | – | > 100 µM | – | 35.8 µM | – | > 100 µM | – | > 100 µM | – | – | – | > 100 µM | – | > 100 µM | – | > 100 µM | – | 28.7 µM | > 100 µM | – |
| CCC1(O)CC(c2ccccc2)N(C)C(c2ccccc2)C1 (stereo not drawn) | – | > 100 µM | – | > 100 µM | – | > 100 µM | – | > 100 µM | – | – | – | > 100 µM | – | > 100 µM | – | > 100 µM | – | > 100 µM | > 100 µM | – |
| OC1/C(=C/c2ccccc2)CNC/C1=C\c1ccccc1 (stereo not drawn) | – | > 100 µM | – | > 100 µM | – | > 100 µM | – | > 100 µM | – | – | – | > 100 µM | – | > 100 µM | – | > 100 µM | – | – | > 100 µM | – |
| NCCCSCC(=O)O | – | > 100 µM | – | > 100 µM | – | > 100 µM | – | > 100 µM | – | – | – | > 100 µM | – | > 100 µM | – | > 100 µM | – | > 100 µM | > 100 µM | – |
| COc1cc(Cl)c(C)cc1NC(=O)c1cc2ccccc2cc1O | 1.69 µM | 10 µM | 3.24 µM | 14.3 µM | 3.47 µM | 14.1 µM | 2.5 µM | 13.4 µM | 2.38 µM | 13.2 µM | 2.43 µM | 7.91 µM | 3.13 µM | 8.53 µM | – | – | 1.97 µM | 8.19 µM | 10.6 µM | 1.65 µM |
| Cc1nc(N(C)C)nc(-c2cccc(-c3ccn(CCN(C)C)n3)c2)c1C | – | – | > 20 µM | > 20 µM | > 20 µM | > 20 µM | > 20 µM | > 20 µM | > 20 µM | > 20 µM | – | – | > 20 µM | > 20 µM | > 20 µM | > 20 µM | > 20 µM | > 20 µM | > 20 µM | 19.5 µM |
| COc1cc(C2C(C(=O)Nc3ccccc3C)=C(C)NC(C)=C2C(=O)Nc2ccccc2C)ccc1O | – | > 100 µM | – | – | – | > 100 µM | – | – | – | – | – | > 100 µM | – | > 100 µM | – | > 100 µM | – | > 100 µM | > 100 µM | – |
